# Data taken from ChEMBL document CHEMBL1201862, “PubChem BioAssay data set” (2004).
# Calls of active or inactive are those of the source.
# Columns and labels:
# Beta-lactamase [1] = biological target: Beta-lactamase (Salmonella choleraesuis (strain SC-B67), UniProt Q5J463); experiment: Epi-absorbance-based counterscreen for selective VIM-2 inhibitors: dose response biochemical high throughput screening assay to identify inhibitors of TEM-1 serine-beta-lactamase.
# Beta-lactamase [2] = biological target: T1, Beta-lactamase (Pseudomonas aeruginosa, UniProt Q79MP6); experiment: IMP-1 metallo-beta-lactamase inhibitors, dose response, selectivity assay for VIM-2 inhibitor project, biochemical, epi-absorbance (AID 1920)
# T1 sequence (Q79MP6 whole entry): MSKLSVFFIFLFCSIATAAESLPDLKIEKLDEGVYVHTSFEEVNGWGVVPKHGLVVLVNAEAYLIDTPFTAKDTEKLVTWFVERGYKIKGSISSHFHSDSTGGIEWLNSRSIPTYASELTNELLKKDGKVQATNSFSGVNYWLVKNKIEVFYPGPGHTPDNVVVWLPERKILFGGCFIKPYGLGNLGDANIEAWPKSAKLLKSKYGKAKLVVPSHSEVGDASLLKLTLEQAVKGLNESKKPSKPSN
# Beta Lactamase [3] = biological target: T2, Beta Lactamase (Pseudomonas aeruginosa, UniProt Q932Y6); experiment: VIM-2 metallo-beta-lactamase inhibitor potency, dose response, biochemical, epi-absorbance readout, selective inhibitors (AID 1919)
# T2 sequence (Q932Y6 whole entry): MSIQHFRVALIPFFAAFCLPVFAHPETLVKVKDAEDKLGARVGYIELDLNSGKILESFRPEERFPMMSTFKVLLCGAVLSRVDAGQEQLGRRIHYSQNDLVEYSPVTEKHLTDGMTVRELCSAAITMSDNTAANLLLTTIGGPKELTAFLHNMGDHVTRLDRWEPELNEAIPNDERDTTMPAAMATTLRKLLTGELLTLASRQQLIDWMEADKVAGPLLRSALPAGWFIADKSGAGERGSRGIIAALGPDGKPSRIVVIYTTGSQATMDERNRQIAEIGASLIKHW
# Beta-lactamase [4] = biological target: T1, Beta-lactamase; experiment: […] counterscreen for selective VIM-2 inhibitors: dose response biochemical high throughput screening assay to identify inhibitors of IMP-1 metallo-beta-lactamase.
# Beta Lactamase [5] = biological target: T2, Beta Lactamase; experiment: VIM-2 inhibitor FRET-based artefact check, dose response, artefact control for selective VIM-2 inhibitor project, biochemical, FRET readout, CCF2 substrate (AID 1926)
# [6] = biological target: ADP-ribosylation factor GTPase-activating protein 1 (Rattus norvegicus, UniProt Q62848); experiment: Fluorescence polarization-based biochemical high throughput dose response screening assay to identify inhibitors of ADP-ribosylation factor GTPase activating protein 1 (ARFGAP1).; assay type: functional
# ADP-ribosylation factor GTPase-activating protein 1, sequence (Q62848 whole entry, the tested form may be a part): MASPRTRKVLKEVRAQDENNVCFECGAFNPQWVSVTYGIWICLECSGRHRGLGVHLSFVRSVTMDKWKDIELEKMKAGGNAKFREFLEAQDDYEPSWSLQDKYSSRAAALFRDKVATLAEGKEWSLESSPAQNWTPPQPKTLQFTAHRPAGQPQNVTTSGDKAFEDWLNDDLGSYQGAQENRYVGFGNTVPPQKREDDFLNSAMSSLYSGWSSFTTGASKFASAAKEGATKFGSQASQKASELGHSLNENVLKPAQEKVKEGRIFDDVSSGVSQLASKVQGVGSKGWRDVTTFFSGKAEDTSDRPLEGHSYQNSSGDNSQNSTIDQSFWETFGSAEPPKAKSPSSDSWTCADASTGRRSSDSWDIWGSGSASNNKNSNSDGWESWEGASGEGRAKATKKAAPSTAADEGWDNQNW
# [7] = biological target: Arf-GAP with SH3 domain, ANK repeat and PH domain-containing protein 1 (Homo sapiens, UniProt Q9ULH1); assay type: functional;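 further: biochemical fluorescence polarization dose–response screen measuring inhibition of ASAP1; ASAP1 GAP domain stimulating GTP hydrolysis by truncated human ARF1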
# Melanocortin receptor 4 = Melanocortin receptor 4 (Homo sapiens, UniProt P32245); assay type: functional, cell-based;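 further: Cell-based assay with luminescence read-out, confirmatory dose-response testing for agonist activity of biased ligands at MC4R; human U2OS cells with tagged receptor and beta-arrestin; potency of agonists that increase receptor coupling to beta-arrestin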
# Melanocortin receptor 4, sequence (P32245 whole entry): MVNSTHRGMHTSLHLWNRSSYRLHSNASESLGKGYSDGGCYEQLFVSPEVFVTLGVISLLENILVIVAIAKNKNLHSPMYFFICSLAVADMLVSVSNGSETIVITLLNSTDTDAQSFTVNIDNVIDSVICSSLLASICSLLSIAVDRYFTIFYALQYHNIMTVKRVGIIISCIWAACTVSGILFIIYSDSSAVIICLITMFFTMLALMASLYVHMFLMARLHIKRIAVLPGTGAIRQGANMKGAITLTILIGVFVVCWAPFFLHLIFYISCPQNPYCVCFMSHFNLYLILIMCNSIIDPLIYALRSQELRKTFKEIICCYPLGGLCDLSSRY
# [8] = HEK293T cell cytotoxicity, dose response, cytotoxicity control for HIV Vif inhibitor project, cherry-picks (AID 652208); assay type: functional, cell-based
# [9] = biological target: T3, Tyrosine-protein phosphatase non-receptor type 7 (Homo sapiens, UniProt P35236); experiment: inhibitors of human HePTP phosphatase, […], biochemical, absorbance, leukemia target (AID 521); assay type: functional
# T3 sequence (P35236 whole entry): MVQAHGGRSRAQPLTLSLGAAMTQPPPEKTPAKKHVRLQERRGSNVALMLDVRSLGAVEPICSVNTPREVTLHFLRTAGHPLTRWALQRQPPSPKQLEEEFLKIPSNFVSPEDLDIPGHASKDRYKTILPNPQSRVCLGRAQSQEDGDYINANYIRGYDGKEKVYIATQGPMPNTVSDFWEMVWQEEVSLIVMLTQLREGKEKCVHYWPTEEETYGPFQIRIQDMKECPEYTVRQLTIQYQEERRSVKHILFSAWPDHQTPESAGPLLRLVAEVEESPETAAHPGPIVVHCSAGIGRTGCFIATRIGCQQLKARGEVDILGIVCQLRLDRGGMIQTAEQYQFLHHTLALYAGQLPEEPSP
# Bcl-2-like protein 10 = Bcl-2-like protein 10 (Homo sapiens, UniProt Q9HD36); experiment: displacers of TR3 peptide from Bcl-B, primary screen, selectivity assay for Bfl-1 inhibitor project, biochemical, fluorescence polarization, FITC-TR3 peptide (AID 748);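 further: fluorescence polarization from a fluorescein-labelled TR3 peptide binding purified Bcl-B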
# Estrogen receptor = biological target: T4, Estrogen receptor (Homo sapiens, UniProt P03372);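 further: potency for inhibiting coactivator peptide recruitment to the receptor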
# T4 sequence (P03372 whole entry): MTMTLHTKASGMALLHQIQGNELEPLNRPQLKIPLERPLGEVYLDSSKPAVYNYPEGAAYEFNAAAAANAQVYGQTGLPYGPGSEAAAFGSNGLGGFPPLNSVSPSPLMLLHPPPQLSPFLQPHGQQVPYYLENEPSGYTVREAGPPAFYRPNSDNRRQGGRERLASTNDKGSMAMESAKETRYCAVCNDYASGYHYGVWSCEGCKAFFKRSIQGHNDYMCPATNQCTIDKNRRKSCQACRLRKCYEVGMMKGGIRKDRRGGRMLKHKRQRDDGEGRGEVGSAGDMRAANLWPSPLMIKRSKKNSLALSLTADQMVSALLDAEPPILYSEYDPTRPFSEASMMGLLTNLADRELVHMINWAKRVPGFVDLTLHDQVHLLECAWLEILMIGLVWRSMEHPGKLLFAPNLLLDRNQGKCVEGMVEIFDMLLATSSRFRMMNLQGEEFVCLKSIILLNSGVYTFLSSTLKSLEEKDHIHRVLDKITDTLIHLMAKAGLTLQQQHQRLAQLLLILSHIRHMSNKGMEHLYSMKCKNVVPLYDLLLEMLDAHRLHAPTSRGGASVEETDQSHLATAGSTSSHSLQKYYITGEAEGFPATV
# Estrogen receptor beta [10] = biological target: T5, Estrogen receptor beta (Homo sapiens, UniProt Q92731);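 further: recombinant ER-beta bound to coactivator SRC1 peptide in presence of estradiol agonist; inhibitors block coactivator peptide binding and lower the FRET signal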
# T5 sequence (Q92731 whole entry): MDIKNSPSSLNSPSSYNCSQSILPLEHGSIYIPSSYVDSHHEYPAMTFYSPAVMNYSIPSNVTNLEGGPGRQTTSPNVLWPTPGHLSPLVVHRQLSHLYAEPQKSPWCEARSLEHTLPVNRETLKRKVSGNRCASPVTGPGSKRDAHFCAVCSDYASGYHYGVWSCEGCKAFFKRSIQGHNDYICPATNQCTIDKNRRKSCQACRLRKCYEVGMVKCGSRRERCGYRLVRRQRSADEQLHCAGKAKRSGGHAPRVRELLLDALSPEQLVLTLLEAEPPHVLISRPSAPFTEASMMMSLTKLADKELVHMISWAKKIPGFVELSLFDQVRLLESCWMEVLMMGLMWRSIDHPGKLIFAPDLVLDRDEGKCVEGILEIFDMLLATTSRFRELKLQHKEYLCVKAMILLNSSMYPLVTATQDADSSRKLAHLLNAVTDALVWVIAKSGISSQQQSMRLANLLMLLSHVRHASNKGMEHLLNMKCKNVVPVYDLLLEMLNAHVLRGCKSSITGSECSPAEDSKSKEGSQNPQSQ
# Estrogen receptor beta [11] = biological target: T5, Estrogen receptor beta; experiment: ERβ–SRC-3 coactivator interaction inhibitors, confirmation, orthogonal assay, biochemical, ELISA, streptavidin-HRP readout (AID 1060)
# [12] = biological target: DNA (cytosine-5)-methyltransferase 1 (Homo sapiens, UniProt P26358); experiment: DNMT1 methyltransferase inhibitors, confirmation, biochemical, fluorescent molecular beacon (AID 602386); assay type: functional
# [13] = biological target: T6, Tyrosine-protein phosphatase non-receptor type 11 (Homo sapiens, UniProt Q06124); experiment: SHP2 phosphatase inhibition, dose response, selectivity assay for STEP inhibitor project, biochemical (AID 602367); assay type: functional; details: read-out: IC50_Mean
# T6 sequence (Q06124 whole entry): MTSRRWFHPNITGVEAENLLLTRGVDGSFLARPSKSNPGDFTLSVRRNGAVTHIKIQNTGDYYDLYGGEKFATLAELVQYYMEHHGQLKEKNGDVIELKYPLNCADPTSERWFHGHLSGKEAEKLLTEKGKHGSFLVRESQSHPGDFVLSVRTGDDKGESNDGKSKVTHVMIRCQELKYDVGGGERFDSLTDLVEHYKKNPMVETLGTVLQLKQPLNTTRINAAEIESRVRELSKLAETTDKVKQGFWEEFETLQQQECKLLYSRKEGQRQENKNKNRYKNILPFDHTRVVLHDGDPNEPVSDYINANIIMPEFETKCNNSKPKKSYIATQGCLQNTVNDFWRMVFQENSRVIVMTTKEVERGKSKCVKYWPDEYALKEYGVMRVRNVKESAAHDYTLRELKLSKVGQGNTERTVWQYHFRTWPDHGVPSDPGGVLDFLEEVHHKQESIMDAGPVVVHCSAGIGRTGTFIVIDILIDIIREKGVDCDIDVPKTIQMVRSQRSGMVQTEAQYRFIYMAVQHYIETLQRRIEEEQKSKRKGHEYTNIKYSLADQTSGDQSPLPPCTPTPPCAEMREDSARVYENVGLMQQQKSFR
# [14] = biological target: T7, Tyrosine-protein phosphatase non-receptor type 5 (Homo sapiens, UniProt P54829); experiment: STEP phosphatase inhibitors, confirmation, biochemical, fluorescence intensity, uHTS hits (AID 602372); assay type: functional; details: read-out: IC50_Mean
# T7 sequence (P54829 whole entry): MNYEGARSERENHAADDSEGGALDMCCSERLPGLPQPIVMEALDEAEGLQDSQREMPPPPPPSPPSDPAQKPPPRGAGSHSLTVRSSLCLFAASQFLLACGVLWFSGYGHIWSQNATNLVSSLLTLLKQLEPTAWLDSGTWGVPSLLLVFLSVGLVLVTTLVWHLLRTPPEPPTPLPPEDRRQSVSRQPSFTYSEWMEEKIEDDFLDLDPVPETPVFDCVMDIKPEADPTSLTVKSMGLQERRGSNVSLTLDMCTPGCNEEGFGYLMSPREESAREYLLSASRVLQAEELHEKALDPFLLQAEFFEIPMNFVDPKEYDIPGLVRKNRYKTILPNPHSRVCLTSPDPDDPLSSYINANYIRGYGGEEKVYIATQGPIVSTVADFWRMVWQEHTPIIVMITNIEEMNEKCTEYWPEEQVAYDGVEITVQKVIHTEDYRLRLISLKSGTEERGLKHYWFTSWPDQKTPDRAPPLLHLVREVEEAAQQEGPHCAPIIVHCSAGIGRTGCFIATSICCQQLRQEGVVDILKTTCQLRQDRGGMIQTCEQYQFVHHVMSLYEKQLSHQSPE
# [15] = biological target: Dual specificity protein phosphatase 3 (Homo sapiens, UniProt P51452); experiment: VHR phosphatase inhibition, dose response, selectivity assay for STEP inhibitor project, biochemical (AID 602374); assay type: functional; details: read-out: IC50_Mean
# [16] = biological target: T8, Tyrosine-protein phosphatase non-receptor type 22 (Homo sapiens, UniProt Q9Y2R2); experiment: PTPN22 phosphatase inhibition, dose response, selectivity assay for STEP inhibitor project, biochemical (AID 624241); assay type: functional
# T8 sequence (Q9Y2R2 whole entry): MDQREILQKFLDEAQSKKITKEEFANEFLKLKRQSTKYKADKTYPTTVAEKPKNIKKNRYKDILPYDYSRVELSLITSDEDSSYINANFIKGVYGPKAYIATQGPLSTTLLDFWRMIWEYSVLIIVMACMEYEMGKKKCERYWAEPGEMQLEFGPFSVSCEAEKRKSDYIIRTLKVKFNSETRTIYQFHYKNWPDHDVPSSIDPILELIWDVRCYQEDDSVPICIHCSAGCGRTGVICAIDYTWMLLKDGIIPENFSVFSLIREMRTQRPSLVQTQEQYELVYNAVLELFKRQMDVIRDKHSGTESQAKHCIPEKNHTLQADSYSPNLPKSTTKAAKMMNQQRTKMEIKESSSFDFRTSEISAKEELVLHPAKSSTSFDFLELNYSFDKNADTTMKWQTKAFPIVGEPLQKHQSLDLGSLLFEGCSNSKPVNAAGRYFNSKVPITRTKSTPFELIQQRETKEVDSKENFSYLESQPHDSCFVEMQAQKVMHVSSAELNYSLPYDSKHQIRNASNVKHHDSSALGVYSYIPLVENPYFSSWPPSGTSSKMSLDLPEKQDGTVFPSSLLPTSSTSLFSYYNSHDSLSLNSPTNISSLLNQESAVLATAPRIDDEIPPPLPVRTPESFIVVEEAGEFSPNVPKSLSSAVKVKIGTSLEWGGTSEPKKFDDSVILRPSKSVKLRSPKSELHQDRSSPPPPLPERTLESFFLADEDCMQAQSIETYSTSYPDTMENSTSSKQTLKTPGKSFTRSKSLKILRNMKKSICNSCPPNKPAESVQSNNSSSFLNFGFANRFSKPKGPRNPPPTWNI
# [17] = inhibitors of Vif binding to APOBEC3G peptide, primary screen, biochemical, TR-FRET, GST-Vif 1-94, biotin-A3G peptide, dose response retest (AID 1117319); assay type: functional;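 further: TR-FRET signal of purified GST-Vif binding a biotinylated A3G peptide; inhibitors lower the FRET signal by blocking Vif and A3G binding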
# [18] = biological target: Fructose-bisphosphate aldolase (Mycobacterium tuberculosis, UniProt P9WQA3); experiment: Fluorescence-based biochemical high throughput dose response assay for inhibitors of the fructose-bisphosphate aldolase (FBA) of M. tuberculosis.; assay type: functional
# Large T antigen = Large T antigen (Simian virus 40, UniProt P03070); assay type: functional, Betapolyomavirus macacae;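 further: Confirmatory-stage PubChem screen for compounds that inhibit SV40 T antigen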
# Large T antigen, sequence (P03070 whole entry): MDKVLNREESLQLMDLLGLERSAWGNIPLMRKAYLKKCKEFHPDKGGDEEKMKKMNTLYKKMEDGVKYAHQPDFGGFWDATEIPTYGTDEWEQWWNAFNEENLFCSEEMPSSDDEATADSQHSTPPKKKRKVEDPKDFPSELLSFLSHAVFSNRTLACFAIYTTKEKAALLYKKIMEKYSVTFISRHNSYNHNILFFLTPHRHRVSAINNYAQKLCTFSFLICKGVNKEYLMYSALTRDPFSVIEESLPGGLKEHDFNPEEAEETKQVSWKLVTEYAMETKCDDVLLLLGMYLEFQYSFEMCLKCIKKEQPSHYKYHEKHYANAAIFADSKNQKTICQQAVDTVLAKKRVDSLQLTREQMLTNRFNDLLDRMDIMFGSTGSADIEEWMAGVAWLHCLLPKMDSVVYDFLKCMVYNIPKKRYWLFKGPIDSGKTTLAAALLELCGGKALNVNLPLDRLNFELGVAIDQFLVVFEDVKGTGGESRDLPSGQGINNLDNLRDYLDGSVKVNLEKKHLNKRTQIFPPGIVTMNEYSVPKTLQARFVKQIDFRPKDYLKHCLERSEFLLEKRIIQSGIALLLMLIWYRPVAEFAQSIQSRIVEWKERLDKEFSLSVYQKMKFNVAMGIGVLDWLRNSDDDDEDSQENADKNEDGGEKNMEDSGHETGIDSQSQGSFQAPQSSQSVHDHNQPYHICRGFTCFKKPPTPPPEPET
# [19] = biological target: Long-chain-fatty-acid--AMP ligase FadD28 (Mycobacterium tuberculosis, UniProt P9WQ59); experiment: Fluorescence polarization aasay to screen for inhibitors that compete for the binding of FadD28 to a bisubstrate Measured in Biochemical System Using Plate Reader - 2147-01_Inhibitor_Dose_CherryPick_Activity.; assay type: functional, Mycobacterium tuberculosis H37Rv
# Beta-galactosidase = Beta-galactosidase (Escherichia coli, UniProt Q8VNN2); experiment: Dose response counterscreen for EBI2 assay utilizing the enzyme, b-galactosidase.; assay type: functional
# [20] = biological target: Broad substrate specificity ATP-binding cassette transporter ABCG2 (Homo sapiens, UniProt Q9UNQ0); experiment: ABCG2 efflux pump inhibitors, dose response, Ig-MXP3 cells, flow cytometry (AID 1690); assay type: functional
# Fatty acid synthase [21] = biological target: T9, Fatty acid synthase (Homo sapiens, UniProt P49327); experiment: FAS thioesterase domain inhibitors, dose response, biochemical, endpoint fluorescence intensity, uHTS hits (AID 624327); assay type: functional;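 further: fluorescence from hydrolysis of an O-methyl fluorescein acyl ester substrate by the enzyme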
# T9 sequence (P49327 whole entry, the tested form may be a part): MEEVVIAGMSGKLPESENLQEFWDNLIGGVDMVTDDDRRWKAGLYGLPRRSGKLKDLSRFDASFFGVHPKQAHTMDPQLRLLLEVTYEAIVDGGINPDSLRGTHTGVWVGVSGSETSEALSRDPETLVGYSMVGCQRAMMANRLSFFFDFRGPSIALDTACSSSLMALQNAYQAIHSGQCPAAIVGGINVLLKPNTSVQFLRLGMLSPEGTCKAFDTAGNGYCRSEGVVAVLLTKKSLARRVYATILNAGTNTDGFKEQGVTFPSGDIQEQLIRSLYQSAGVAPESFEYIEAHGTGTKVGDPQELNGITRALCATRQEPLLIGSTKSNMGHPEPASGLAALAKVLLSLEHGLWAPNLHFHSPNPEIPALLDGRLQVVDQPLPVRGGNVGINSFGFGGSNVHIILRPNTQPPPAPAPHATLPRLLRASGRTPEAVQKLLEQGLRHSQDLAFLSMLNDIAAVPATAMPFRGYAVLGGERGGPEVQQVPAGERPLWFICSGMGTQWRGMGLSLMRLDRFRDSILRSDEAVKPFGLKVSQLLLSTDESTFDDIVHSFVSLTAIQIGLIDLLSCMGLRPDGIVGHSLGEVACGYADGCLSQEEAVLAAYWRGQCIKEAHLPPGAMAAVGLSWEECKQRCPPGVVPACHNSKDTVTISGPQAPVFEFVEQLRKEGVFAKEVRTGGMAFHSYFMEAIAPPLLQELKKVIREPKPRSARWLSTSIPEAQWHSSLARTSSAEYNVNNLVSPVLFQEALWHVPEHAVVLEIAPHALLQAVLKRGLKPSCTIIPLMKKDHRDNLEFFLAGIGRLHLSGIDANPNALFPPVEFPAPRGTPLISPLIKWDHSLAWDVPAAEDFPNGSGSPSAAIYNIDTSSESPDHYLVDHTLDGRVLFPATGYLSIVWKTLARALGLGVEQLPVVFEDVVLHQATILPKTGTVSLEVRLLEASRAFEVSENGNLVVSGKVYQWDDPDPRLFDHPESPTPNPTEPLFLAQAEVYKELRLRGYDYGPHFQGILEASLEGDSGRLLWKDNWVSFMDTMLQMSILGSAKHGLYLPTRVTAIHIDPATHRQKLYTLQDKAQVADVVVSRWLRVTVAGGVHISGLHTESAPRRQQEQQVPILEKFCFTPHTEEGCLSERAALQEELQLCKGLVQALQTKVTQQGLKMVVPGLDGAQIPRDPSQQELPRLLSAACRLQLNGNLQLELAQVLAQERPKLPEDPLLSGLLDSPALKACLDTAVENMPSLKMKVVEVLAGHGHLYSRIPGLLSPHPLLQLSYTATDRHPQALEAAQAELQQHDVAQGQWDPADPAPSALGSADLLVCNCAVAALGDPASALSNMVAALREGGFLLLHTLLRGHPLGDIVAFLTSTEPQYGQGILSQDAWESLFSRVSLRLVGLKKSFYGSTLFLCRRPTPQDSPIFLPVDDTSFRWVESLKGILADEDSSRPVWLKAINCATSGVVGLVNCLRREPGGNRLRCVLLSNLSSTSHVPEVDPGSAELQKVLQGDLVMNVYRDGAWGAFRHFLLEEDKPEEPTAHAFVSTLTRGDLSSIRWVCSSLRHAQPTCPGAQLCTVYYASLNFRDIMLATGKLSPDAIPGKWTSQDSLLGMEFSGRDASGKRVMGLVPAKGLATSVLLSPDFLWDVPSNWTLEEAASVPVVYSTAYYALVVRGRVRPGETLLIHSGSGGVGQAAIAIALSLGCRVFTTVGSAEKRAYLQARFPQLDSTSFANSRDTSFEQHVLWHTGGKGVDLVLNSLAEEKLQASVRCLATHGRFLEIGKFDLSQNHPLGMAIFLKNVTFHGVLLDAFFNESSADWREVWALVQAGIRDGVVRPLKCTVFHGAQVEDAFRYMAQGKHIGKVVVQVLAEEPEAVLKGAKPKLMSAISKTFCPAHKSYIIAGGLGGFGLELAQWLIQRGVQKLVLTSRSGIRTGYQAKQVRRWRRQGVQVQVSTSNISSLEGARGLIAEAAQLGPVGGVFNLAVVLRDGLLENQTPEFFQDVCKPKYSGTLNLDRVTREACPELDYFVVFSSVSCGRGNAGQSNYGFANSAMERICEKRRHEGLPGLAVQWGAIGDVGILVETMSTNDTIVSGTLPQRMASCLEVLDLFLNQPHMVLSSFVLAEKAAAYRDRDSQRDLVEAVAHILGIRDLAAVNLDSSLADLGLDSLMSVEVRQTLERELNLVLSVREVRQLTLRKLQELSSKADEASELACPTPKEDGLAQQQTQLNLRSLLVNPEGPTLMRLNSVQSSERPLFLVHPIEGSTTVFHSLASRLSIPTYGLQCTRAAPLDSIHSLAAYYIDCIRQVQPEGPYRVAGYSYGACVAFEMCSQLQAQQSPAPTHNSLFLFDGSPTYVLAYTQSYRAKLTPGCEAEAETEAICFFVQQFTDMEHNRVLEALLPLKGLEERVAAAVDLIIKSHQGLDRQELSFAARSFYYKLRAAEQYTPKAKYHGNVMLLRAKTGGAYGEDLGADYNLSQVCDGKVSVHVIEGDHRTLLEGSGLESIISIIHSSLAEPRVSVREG
# Fatty acid synthase [22] = biological target: T9, Fatty acid synthase; experiment: FAS thioesterase domain inhibitors, dose response, biochemical, kinetic fluorescence intensity (AID 624326); assay type: functional;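 further: rate of fluorescence rise from hydrolysis of a fluorogenic O-methyl fluorescein ester substrate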
# Albumin = Albumin (Bos taurus, UniProt P02769); experiment: Counterscreen for inhibitors of T-cell receptor (TCR)-CD3 interaction: Fluorescence-based biochemical high throughput dose response assay to identify inhibitors of T-cell receptor (TCR)-CD3 interaction using a TAMRA-labeled BSA probe.; assay type: functional
compound,measurement,setting,value
CN(C)S(=O)(=O)c1cccc(NC(=S)N/N=C/C2CC=CCC2)c1 (stereo not drawn),IC50,Beta-lactamase [1],> 59.6 µM (inactive)
same,IC50,Beta-lactamase [2],> 59.6 µM (inactive)
same,IC50,Beta Lactamase [3],1 µM (active)
same,IC50,Beta-lactamase [4],> 59.6 µM (inactive)
same,IC50,Beta Lactamase [5],0.335 µM (active)
Cc1ccc2nc(SCC(=O)N3CC(C)OC(C)C3)nc(=O)n2c1 (stereo not drawn),IC50,[6],10.7 µM (inactive)
same,IC50,[7],20.9 µM (inactive)
NC(CCc1ccccc1)c1csc(Nc2ccc(C(=O)c3ccccc3)cc2)n1 (stereo not drawn),EC50,Melanocortin receptor 4,> 89.2 µM (inactive)
same,AC50,[8],27.7 µM (active)
COc1ccc(OC)c(N2C(=O)[C@@H]3C(c4ccccc4Cl)=NO[C@@H]3C2=O)c1,IC50,[9],8.25 µM (active)
same,IC50,Bcl-2-like protein 10,14.9 µM (active)
same,IC50,Estrogen receptor,9.78 µM (active)
same,IC50,Estrogen receptor beta [10],2.49 µM (active)
same,IC50,Estrogen receptor beta [11],> 50 µM (not active)
same,IC50,[12],4.35 µM (active)
same,IC50,[13],0.469 µM (active)
same,IC50,[14],24.4 µM (inactive)
same,IC50,[15],0.833 µM (active)
same,IC50,[16],> 100 µM (inactive)
same,IC50,[17],> 100 µM (active)
COc1ccc2nc(C)cc(C(=O)O)c2c1,IC50,[18],1.16 µM (active)
Cc1[nH]c2ccccc2c1-c1csc(NC(=O)CSCC(=O)O)n1,IC50,Large T antigen,26.2 µM (active)
same,AC50,[19],> 100 µM (inactive)
COc1cccc(C(=O)N2CCN(C(=O)COc3ccc4ccccc4c3)CC2)c1,IC50,Beta-galactosidase,> 80 µM (inactive)
COc1cc(C(=O)Nc2ccc(S(=O)(=O)NC(C)C)cc2)cc(OC)c1OC,EC50,[20],1.32 µM (inactive)
COc1cc([N+](=O)[O-])cc(/C=N/NC(=O)c2cc(C)nc3ccccc23)c1O,IC50,Fatty acid synthase [21],15.5 µM (active)
same,IC50,Fatty acid synthase [22],11.7 µM (active)
same,IC50,Albumin,> 94.1 µM (inactive)
